Patent US20250249056A1, “CANCER THERAPIES COMPRISING A NUCLEAR EXPORT INHIBITOR AND AN ONCOLYTIC VIRUS” (priority 2022, published 2025)

Test system: Colo205 cells
Assay type: cell-based, human
Settings: selinexor-treated nucleus vs MYXV + selinexor-treated nucleus

Compound: O=C(/C=C\n1cnc(-c2cc(C(F)(F)F)cc(C(F)(F)F)c2)n1)NNc1cnccn1 [selinexor]
- Differential protein expression B2CWG0 m053R: 0.01
- Differential protein expression B2CWG4 m057L: 0.01
- Differential protein expression B2CWG5 m058R: 0.176
- Differential protein expression B2CWG7 m060R: 0.01
- Differential protein expression B2CWG8 m061R: 0.01
- Differential protein expression B2CWH0: 0.069
- Differential protein expression B2CWH1 m064R: 0.211
- Differential protein expression B2CWH3 m066R: 0.01
- Differential protein expression B2CWH6 m069L: 0.01
- Differential protein expression B2CWH8: 0.232
- Differential protein expression B2CWI0: 0.021
- Differential protein expression B2CWI3 m076R: 0.096
- Differential protein expression B2CWI4 m077L: 0.01
- Differential protein expression B2CWI6 m079R: 0.131
- Differential protein expression B2CWI7 m080R: 0.036
- Differential protein expression B2CWJ3: 0.01
- Differential protein expression B2CWJ5: 0.01
- Differential protein expression B2CWJ9 m092L: 0.16
- Differential protein expression B2CWK2 m095L: 0.029
- Differential protein expression B2CWL4: 0.01
- Differential protein expression B2CWL5 m108R: 0.088
- Differential protein expression B2CWL8 m111R: 0.101
- Differential protein expression B2CWM1: 0.083
- Differential protein expression B2CWM2 m115L: 0.077
- Differential protein expression B2CWP6 m139R: 0.04
- Differential protein expression B2CWP9 m142R: 0.01
- Differential protein expression B2CWQ5 m149R: 0.01
- Differential protein expression B2CWQ7: 0.229
- Differential protein expression B2CWR1 m156R: 0.022
- Differential protein expression D2WM37 m012L: 0.058
- Differential protein expression D2WMA0 m030L: 0.057
- Differential protein expression D2WN05 m078R: 0.021
- Differential protein expression D2WN26 m090L: 0.097
- Differential protein expression D2WN93 m151R: 0.255
- Differential protein expression D3W0C4 m130R: 0.01
- Differential protein expression E2CZH7 m088L: 0.01
- Differential protein expression E2CZJ6 m107L: 0.01
- Differential protein expression E2CZJ9 m110L: 0.01
- Differential protein expression E2CZK3 m114R: 0.083
- Differential protein expression E2CZL2 m123R: 0.277
- Differential protein expression E2CZL6 m127L: 0.025
- Differential protein expression E2CZM0 m131R: 0.01
- Differential protein expression E2CZM2 m133R: 0.048
- Differential protein expression E2CZP2 m001R: 0.037
- Differential protein expression E2CZQ3 m009L: 0.132
- Differential protein expression E2CZQ9 m014L: 0.092
- Differential protein expression E2CZR0 m015L: 0.04
- Differential protein expression E2CZR6 m021L: 0.133
- Differential protein expression E2CZV0 m055R: 0.052
- Differential protein expression E2CZV1 m056R: 0.01
- Differential protein expression E2CZV4 m059R: 0.01
- Differential protein expression E2CZW3 m068R: 0.052
- Differential protein expression E2CZW7 m072L: 0.211
- Differential protein expression E2CZY1 m086L: 0.01
- Differential protein expression K4JKC2 m073R: 0.021
- Differential protein expression O00584 RNASET2: 0.01
- Differential protein expression O10625 M-T1: 0.037
- Differential protein expression O55698 M-T4: 0.122
- Differential protein expression O76013 KRT36: 0.01
- Differential protein expression O76015 KRT38: 0.01
- Differential protein expression P01100 FOS: 0.211
- Differential protein expression P05090 APOD: 0.01
- Differential protein expression P07942 LAMB1: 0.128
- Differential protein expression P10909 CLU: 0.01
- Differential protein expression P14209 CD99: 0.01
- Differential protein expression P17066 HSPA6: 0.01
- Differential protein expression P17516 AKR1C4: 0.01
- Differential protein expression P50583 NUDT2: 0.01
- Differential protein expression P68544 PAPS: 0.044
- Differential protein expression P68550: 0.168
- Differential protein expression Q5BJH7 YIF1B: 0.161
- Differential protein expression Q5VVJ2 MYSM1: 0.01
- Differential protein expression Q6SJ93 FAM111B: 0.253
- Differential protein expression Q8IY95 TMEM192: 0.01
- Differential protein expression Q8TB72 PUM2: 0.01
- Differential protein expression Q8TDQ7 GNPDA2: 0.01
- Differential protein expression Q9P000 COMMD9: 0.213
- Differential protein expression Q9PX24 m007L: 0.087
- Differential protein expression Q9PX36 m006L: 0.035
- Differential protein expression Q9PXA3 m004L: 0.122
- Differential protein expression Q9Q8F0 m154L: 0.125
- Differential protein expression Q9Q8F9 m144R: 0.179
- Differential protein expression Q9Q8G2 m140R: 0.165
- Differential protein expression Q9Q8G4 m137R: 0.01
- Differential protein expression Q9Q8G6 m135R: 0.021
- Differential protein expression Q9Q8H2 m129R: 0.119
- Differential protein expression Q9Q8H9 m122R: 0.022
- Differential protein expression Q9Q8I1 m120L: 0.024
- Differential protein expression Q9Q8I4 m117L: 0.027
- Differential protein expression Q9Q8I6 m114R: 0.083
- Differential protein expression Q9Q8J1 m109L: 0.032
- Differential protein expression Q9Q8J4 m106L: 0.01
- Differential protein expression Q9Q8J5 m105L: 0.01
- Differential protein expression Q9Q8J9 m101L: 0.01
- Differential protein expression Q9Q8K1 m099L: 0.03
- Differential protein expression Q9Q8K3 m097R: 0.01
- Differential protein expression Q9Q8K6 m094R: 0.01
- Differential protein expression Q9Q8K7 m093L: 0.039
- Differential protein expression Q9Q8L1 m089L: 0.01
- Differential protein expression Q9Q8L3 m087L: 0.069
- Differential protein expression Q9Q8L8 m082R: 0.037
- Differential protein expression Q9Q8L9 VETFS: 0.087
- Differential protein expression Q9Q8M5 m075R: 0.01
- Differential protein expression Q9Q8M6 m074R: 0.047
- Differential protein expression Q9Q8M9 m071L: 0.232
- Differential protein expression Q9Q8N0 m070R: 0.01
- Differential protein expression Q9Q8N5: 0.069
- Differential protein expression Q9Q8N8 m058R: 0.176
- Differential protein expression Q9Q8P4 m052L: 0.029
- Differential protein expression Q9Q8P7 m049R: 0.051
- Differential protein expression Q9Q8Q1: 0.059
- Differential protein expression Q9Q8Q3 m043L: 0.067
- Differential protein expression Q9Q8Q6 m040L: 0.011
- Differential protein expression Q9Q8Q8 m038L: 0.023
- Differential protein expression Q9Q8R0 m036L: 0.099
- Differential protein expression Q9Q8R4 m032R: 0.01
- Differential protein expression Q9Q8R5 m031R: 0.011
- Differential protein expression Q9Q8S0 m026R: 0.039
- Differential protein expression Q9Q8S2 m020L: 0.191
- Differential protein expression Q9Q8S8 m013L: 0.172
- Differential protein expression Q9Q817 m113R: 0.037
- Differential protein expression Q9UHX3 ADGRE2: 0.01
- Differential protein expression Q9UJ68 MSRA: 0.202
- Differential protein expression Q9YQ03 mt6: 0.031
- Differential protein expression Q68DK2 ZFYVE26: 0.092
- Differential protein expression Q77P93 m003.2L: 0.049
- Differential protein expression Q77PB1 m003.1L: 0.145
- Differential protein expression Q86WV6 STING1: 0.01
- Differential protein expression Q96HD1 CRELD1: 0.01
- Differential protein expression Q96LJ7 DHRS1: 0.01
- Differential protein expression Q12913 PTPRJ: 0.01
- Differential protein expression Q16204 CCDC6: 0.249
- Differential protein expression Q58719 SFT2D3: 0.01
- Differential protein expression Q83604 MF13: 0.058
- Differential protein expression Q83730 m005R: 0.01
- Differential protein expression Q85296: 0.124
- Differential protein expression Q85297: 0.01
